Values quoted from earlier work as cited in article PMC12304352, “Optimization of a GMP-compliant automated one-pot synthesis of Al[^18F]F-NOTA-Ubiquicidin29 − 41 for bacterial infection imaging by PET/CT” (EJNMMI Radiopharmacy and Chemistry, 2025).

Tested on: methicillin-resistant S. aureus (MRSA)
Conditions: injected intravenously, ref Brouwer et al. [2006]
From the text: Ubiquicidin (UBI), a cationic antimicrobial peptide fragment, has emerged as a promising agent for infection imaging due to its selective binding to anionic bacterial membranes (Ferro-Flores et al. [2016]). […] Another UBI-derived peptide (UBI29 − 41) radiolabeled with technetium-99m, was used as a probe for real-time, whole- ...

## UBI31 − 38: synthetic ubiquicidin derivative composed of only eight amino acids (KVDENGKI; Small ribosomal subunit protein eS31; UniProt P62979 107-114, looked up, fragment)
  Efficacy against MRSA in a mouse infection model: somewhat reduced activity
